Source: patent publication US20230123654A1 (priority 2020, published 2023)
“And” between values parts separate entries of the source, which are not always exact repeats. Equal values may be shown once. Read-outs that look alike come from different tables or passages of the source.

Columns and labels:
gramicidin-HEK cells = format: cell-based, human
Nav1.5 [1] = molecular target: T1, Nav1.5 (Homo sapiens, UniProt Q14524); format: cell-based
Nav1.5 [2] = molecular target: T1, Nav1.5
Nav1.4 [3] = molecular target: T2, Nav1.4 (Homo sapiens, UniProt P35499); format: cell-based; as to Mean block of INa: test concentration or dose not given here
T2 sequence (P35499 whole entry, looked up): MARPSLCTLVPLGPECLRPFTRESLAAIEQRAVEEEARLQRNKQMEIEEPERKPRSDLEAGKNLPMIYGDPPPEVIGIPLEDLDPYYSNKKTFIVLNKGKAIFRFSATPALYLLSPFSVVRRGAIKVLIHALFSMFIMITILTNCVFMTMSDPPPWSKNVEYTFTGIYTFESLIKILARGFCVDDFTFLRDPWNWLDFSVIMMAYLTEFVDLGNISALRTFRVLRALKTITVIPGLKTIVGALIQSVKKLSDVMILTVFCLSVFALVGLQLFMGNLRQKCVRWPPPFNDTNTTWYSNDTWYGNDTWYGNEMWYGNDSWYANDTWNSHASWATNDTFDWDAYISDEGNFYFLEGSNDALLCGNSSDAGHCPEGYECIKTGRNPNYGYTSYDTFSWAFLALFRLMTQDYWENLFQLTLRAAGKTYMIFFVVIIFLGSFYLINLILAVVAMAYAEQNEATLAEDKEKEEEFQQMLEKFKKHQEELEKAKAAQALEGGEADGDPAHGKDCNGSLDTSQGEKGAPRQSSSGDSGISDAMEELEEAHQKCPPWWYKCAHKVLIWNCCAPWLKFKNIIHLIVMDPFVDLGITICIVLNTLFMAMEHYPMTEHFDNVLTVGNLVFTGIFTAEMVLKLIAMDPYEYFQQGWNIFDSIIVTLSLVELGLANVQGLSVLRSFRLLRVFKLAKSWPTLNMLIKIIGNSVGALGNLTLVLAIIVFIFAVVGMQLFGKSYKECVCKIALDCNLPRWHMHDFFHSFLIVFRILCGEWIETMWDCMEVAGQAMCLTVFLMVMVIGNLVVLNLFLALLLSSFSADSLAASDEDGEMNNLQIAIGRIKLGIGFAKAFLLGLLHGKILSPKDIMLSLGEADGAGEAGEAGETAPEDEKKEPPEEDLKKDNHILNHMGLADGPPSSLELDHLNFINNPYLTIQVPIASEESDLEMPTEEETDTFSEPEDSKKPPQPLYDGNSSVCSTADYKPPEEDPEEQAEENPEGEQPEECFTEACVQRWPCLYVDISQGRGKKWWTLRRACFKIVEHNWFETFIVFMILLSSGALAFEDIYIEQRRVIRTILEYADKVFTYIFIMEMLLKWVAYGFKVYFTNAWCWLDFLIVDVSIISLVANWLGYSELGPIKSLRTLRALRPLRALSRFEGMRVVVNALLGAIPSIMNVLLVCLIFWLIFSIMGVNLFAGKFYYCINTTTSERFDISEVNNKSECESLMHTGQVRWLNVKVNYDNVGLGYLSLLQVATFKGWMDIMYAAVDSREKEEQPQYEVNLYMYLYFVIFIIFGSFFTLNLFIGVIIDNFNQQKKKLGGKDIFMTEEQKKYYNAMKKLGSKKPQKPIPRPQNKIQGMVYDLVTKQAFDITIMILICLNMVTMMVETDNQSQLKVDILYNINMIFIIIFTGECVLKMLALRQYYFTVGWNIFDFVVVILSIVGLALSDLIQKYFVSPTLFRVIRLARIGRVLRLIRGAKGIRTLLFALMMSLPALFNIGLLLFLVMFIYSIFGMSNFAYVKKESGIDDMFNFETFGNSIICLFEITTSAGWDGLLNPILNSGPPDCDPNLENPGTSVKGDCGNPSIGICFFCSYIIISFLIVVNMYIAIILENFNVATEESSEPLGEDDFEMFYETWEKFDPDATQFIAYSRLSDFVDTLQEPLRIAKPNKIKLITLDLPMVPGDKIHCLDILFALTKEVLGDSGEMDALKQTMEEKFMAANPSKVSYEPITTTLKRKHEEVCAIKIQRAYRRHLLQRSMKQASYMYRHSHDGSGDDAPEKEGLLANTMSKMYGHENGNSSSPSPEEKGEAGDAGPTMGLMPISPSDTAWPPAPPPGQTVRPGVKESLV

Nav1.5 [4] = molecular target: T1, Nav1.5; format: cell-based; remark: listed apart in the source
[5] = system: Nav1.5 transfected cells (CHO); format: cell-based, Chinese hamster
[6] = system: gramicidin containing DC22:1PC LUVs
Nav1.4 P1158S = Nav1.4 P1158S (Homo sapiens, UniProt P35499, P1158S); format: cell-based
Sequence of Nav1.4 P1158S (P35499 whole entry P1158S, looked up): as the sequence (P35499 whole entry, looked up) above, with P1158S counted along it

Nav1.5 (SCN5A) = Nav1.5 (SCN5A) (Homo sapiens, UniProt Q14524); format: cell-based
Nav1.4 [7] = molecular target: T2, Nav1.4; format: cell-based; remark: listed apart in the source
[8] = system: Nav1.5 transfected cells (CHO)
[9] = molecular target: Nav1.4 DIV-S6 peptide ([…]) (Homo sapiens, UniProt P35499); format: binding
Nav = conditions: cited from earlier work
Nav1.4 WWWW = Nav1.4 WWWW (Homo sapiens, UniProt P35499, F432W/I1280W/I1583W/V787W); format: cell-based; also: test concentration or dose not given here
Sequence of Nav1.4 WWWW (P35499 whole entry F432W/V787W/I1280W/I1583W, looked up): as the sequence (P35499 whole entry, looked up) above, with F432W, V787W, I1280W, I1583W counted along it

Nav1.4 F1586A = Nav1.4 F1586A (Homo sapiens, UniProt P35499, F1586A); format: cell-based; as to Mean block of INa: test concentration or dose not given here
Sequence of Nav1.4 F1586A (P35499 whole entry F1586A, looked up): as the sequence (P35499 whole entry, looked up) above, with F1586A counted along it

[10] = molecular target: Nav1.1 pore-mutant (F1763A-LA mutant) (Homo sapiens, UniProt P35498, F1774A); conditions: cited from earlier work
Nav1.5 [11] = molecular target: T1, Nav1.5; format: cell-based; remark: listed apart in the source
TTX-sensitive channels = conditions: cited from earlier work
Nav1.5 [12] = molecular target: T1, Nav1.5; format: cell-based; remark: listed apart in the source
Nav1.5 [13] = molecular target: T1, Nav1.5; format: cell-based; remark: listed apart in the source
Nav1.4 [14] = molecular target: T2, Nav1.4; conditions: read-out: resting IC50 on Nav1.4; cited from earlier work
For contraction amplitude in this document: test concentration or dose not given here.

T1 sequence (Q14524 whole entry): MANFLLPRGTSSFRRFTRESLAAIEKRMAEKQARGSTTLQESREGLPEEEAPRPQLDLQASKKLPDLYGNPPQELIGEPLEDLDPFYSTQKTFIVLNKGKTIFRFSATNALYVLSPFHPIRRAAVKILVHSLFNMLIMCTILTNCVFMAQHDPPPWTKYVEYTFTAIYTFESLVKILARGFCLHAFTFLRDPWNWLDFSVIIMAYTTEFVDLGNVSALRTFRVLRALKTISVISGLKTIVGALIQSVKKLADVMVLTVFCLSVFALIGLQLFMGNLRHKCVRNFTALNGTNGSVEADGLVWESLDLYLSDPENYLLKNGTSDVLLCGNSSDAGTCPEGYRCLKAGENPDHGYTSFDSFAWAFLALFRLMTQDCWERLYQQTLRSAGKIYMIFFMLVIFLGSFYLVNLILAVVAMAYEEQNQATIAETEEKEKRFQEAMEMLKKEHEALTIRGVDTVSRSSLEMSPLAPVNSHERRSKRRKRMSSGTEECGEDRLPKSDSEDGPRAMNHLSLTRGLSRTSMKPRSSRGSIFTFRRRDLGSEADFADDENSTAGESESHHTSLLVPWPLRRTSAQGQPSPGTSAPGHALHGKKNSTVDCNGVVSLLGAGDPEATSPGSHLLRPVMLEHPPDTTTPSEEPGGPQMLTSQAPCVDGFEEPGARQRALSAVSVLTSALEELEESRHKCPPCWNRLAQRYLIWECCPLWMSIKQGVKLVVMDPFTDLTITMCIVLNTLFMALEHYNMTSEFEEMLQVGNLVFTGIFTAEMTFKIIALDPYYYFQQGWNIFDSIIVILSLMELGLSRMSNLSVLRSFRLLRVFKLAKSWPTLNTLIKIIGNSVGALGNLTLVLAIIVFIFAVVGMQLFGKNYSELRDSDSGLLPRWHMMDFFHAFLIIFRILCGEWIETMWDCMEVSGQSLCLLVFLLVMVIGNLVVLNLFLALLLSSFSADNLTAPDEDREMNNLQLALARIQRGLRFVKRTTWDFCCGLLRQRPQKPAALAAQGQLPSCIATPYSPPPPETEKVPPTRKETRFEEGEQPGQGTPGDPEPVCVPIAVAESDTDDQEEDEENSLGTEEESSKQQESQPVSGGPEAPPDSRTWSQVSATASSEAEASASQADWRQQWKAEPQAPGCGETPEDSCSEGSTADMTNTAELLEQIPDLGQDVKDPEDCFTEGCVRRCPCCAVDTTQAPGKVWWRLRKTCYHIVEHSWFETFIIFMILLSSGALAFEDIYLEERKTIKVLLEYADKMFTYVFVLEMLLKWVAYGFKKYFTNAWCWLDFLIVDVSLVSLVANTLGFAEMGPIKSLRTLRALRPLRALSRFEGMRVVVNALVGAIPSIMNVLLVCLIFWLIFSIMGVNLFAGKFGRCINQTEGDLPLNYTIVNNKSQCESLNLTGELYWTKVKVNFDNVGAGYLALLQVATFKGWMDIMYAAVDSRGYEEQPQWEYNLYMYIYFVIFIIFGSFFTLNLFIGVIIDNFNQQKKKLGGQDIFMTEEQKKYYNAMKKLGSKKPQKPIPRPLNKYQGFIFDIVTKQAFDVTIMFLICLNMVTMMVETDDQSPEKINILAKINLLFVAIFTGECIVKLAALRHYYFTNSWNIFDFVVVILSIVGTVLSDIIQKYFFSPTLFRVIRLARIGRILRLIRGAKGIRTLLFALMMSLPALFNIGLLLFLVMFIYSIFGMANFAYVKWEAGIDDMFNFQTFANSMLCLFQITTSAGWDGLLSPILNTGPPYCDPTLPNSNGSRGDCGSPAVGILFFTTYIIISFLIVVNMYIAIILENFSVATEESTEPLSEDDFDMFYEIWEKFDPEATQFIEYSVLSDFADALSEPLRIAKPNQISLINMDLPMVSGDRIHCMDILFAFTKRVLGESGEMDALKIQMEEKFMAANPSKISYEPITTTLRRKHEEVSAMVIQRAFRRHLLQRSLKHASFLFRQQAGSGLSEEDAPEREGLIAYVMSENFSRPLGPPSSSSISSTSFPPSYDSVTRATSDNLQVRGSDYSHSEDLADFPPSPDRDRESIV

With Triton X100 [TX100] the gramicidin currents (gramicidin-HEK cells) was “altered the cationic gramicidin currents across all potentials”.

With C=C(C)[C@@H]1CCC(C)=C[C@H]1c1c(O)cc(CCCCC)cc1O [CANNABIDIOL, 2-[(1R,6R)-3-Methyl-6-(1-methylethenyl)-2-cyclohexen-1-yl]-5-pentyl-1,3-benzenediol] the “GV − z (slope)” value (Nav1.5 [1]) was 4.7 ± 0.9 and 3.7 ± 0.6 and 2.8 ± 0.2 and 3.1 ± 0.2, the “Azithromycin-induced late sodium current” value (Nav1.5 [2]) was “the late current was reduced” and the gramicidin currents (gramicidin-HEK cells) was “slightly altered gramicidin currents”. The “Mean block of INa” value (Nav1.4 [3]) was 42.4±6.4% and ~45%, the contraction amplitude (rat diaphragm muscle) was ~60 % of control and the “Percentage of persistent INa” value (Nav1.5 [4]) was 0.93 ± 0.05% and 1.04 ± 0.11% and 0.88 ± 0.07%. For the same molecule, the “ROS levels at high glucose” value [5] was “complete reduction of ROS levels”, the “gramicidin signal (fluorescence quench)” value [6] was “alters the gramicidin signal” and the “SSFI V1/2” value (Nav1.4 P1158S; pH6.4) was −81.7±2.3 mV. For the same molecule, the SSFI z (Nav1.4 P1158S; pH6.4) was 2.7±0.3, the “activation V1/2” value (Nav1.4 P1158S; pH6.4) was −21.1±3.3 mV and the activation z (Nav1.4 P1158S; pH6.4) was 2.5±0.2. For the same molecule, the “persistent currents, Percentage” value (Nav1.4 P1158S; pH6.4) was 5.4±1.2%, the “SSFI V1/2” value (Nav1.4 P1158S; pH7.4) was −83.0±2.6 mV and the SSFI z (Nav1.4 P1158S; pH7.4) was 3.0±0.3. For the same molecule, the “activation V1/2” value (Nav1.4 P1158S; pH7.4) was −32.7±3.6 mV, the activation z (Nav1.4 P1158S; pH7.4) was 2.9±0.2 and the “persistent currents, Percentage” value (Nav1.4 P1158S; pH7.4) was 1.0±0.2%. The “activation and steady-state inactivation curves” value (Nav1.5 (SCN5A)) was “rescues the activation and steady-state inactivation curves”, the late sodium current (Nav1.5 (SCN5A)) was “indistinguishable from control” and the “SSFI V1/2” value (Nav1.4 [7]) was −72.7±3.0 mV. The SSFI z (Nav1.4 [7]) was −2.8±0.4, the “activation V1/2” value (Nav1.4 [7]) was −14.3±4.2 mV and the activation z (Nav1.4 [7]) was 2.8±0.3. For the same molecule, the “effect on reduction in cell viability at high glucose” value [8] was “attenuated the reduction in cell viability”, the “peak heat of titration” value [9] was 1022.2 ± 160.6 kcal/mol and the “state-dependence in Nav inhibition” value (Nav) was “approximately 10 fold”. For the same molecule, the IC50 (Nav; read-out: IC50, inactivated Nav) was ~1 µM, the IC50 (Nav; read-out: IC50, resting Nav) was ~10 µM and the “Mean block of INa” value (Nav1.4 WWWW) was 6.4±1.3%. For the same molecule, the “Mean block of INa” value (Nav1.4 F1586A) was 25.3±4.8% and ~25%, the “difference between inhibition of WT vs. F1586A” value (Nav1.4 F1586A) was 1.5 fold and the “drop in potency in pore-mutant” value [10] was ~2.5 fold.

For OC[C@@H](O)[C@@H](O)[C@H](O)[C@H](O)CO [Mannitol, mannitol], the “GV − V1/2 (Steady state activation)” value (Nav1.5 [1]) was −39.2 ± 1.6 mV, the “GV − z (slope)” value (Nav1.5 [1]) was 5.1 ± 0.8 and the “cell viability, agent alone” value [8] was “no significant effect on the cell viability”. The “SSF[I] − V1/2 (Steady State Fast Inactivation)” value (Nav1.5 [11]) was −93.6 ± 2.3 mV and the “SSF[I] − z (slope)” value (Nav1.5 [11]) was −2.1 ± 0.3.

For NC1=N[C@H](O)[C@H]2[C@H]3O[C@]4(O)O[C@@H]([C@@H](O)[C@@]2(N1)[C@@H]4O)[C@]3(O)CO [TTX, tetrodotoxin], the contraction amplitude (rat diaphragm muscle) is listed as ~20 % of control and the IC50 (TTX-sensitive channels) is listed as 0.01 to 0.03 µM.

For Nc1ncnc2c1nc(Sc1ccc(Cl)cc1)n2[C@@H]1O[C@@H]2COP(=O)([O-])O[C@H]2[C@H]1O.[Na+] [CPT-cAMP, 8-(4-chlorophenylthio) adenosine-3′,5′-cyclic monophosphate], the “Percentage of persistent INa” value (Nav1.5 [4]) was 2.20 ± 0.08%, the “SSFI V1/2” value (Nav1.5 [12]) was −79.4 ± 1.1 mV and the “SSFI − z (slope)” value (Nav1.5 [12]) was −3.0 ± 0.1. For the same molecule, the “GV − V1/2 (Steady state activation)” value (Nav1.5 [13]) was −25.2 ± 0.5 mV and the “GV − z (slope)” value (Nav1.5 [13]) was 2.5 ± 0.1.

With CC[C@H]1OC(=O)[C@H](C)[C@@H](O[C@H]2C[C@@](C)(OC)[C@@H](O)[C@H](C)O2)[C@H](C)[C@@H](O[C@@H]2O[C@H](C)C[C@H](N(C)C)[C@H]2O)[C@](C)(O)C[C@@H](C)CN(C)[C@H](C)[C@@H](O)[C@]1(C)O [Azithromycin] the “late sodium current compared to control” value (Nav1.5 [2]) was “an increase in late sodium current”.

For CC1(C)CC(O)CC(C)(C)N1[O] [Tempol], the “GV − z (slope)” value (Nav1.5 [1]) was 3.9 ± 0.6 and 4.4 ± 0.5 and 2.6 ± 0.2 and 4.0 ± 0.6 and 2.2 ± 0.1 and 4.3 ± 1.0 and 3.4 ± 0.3, the “ROS levels at high glucose” value [5] was “complete reduction of ROS levels” and the “effect on reduction in cell viability at high glucose” value [8] was “showed similar results to CANNABIDIOL”.

In the case of O=C(NCC1CCCCN1)c1cc(OCC(F)(F)F)ccc1OCC(F)(F)F (centres unmarked) [flecainide], the “Mean block of INa” value (Nav1.4 [3]) is reported as 64.6±6.0% and the “Mean block of INa” value (Nav1.4 WWWW) is reported as 76.4±11.3%.

With CCCCCCCCCCCCCC(=O)O[C@@H]1[C@@H](C)[C@@]2(O)[C@@H](C=C(CO)C[C@]3(O)C(=O)C(C)=C[C@@H]23)[C@@H]2C(C)(C)[C@]12OC(C)=O [PMA] the “Percentage of persistent INa” value (Nav1.5 [4]) was 2.18 ± 0.06%, the “SSFI V1/2” value (Nav1.5 [12]) was −76.4 ± 1.7 mV and the “SSFI − z (slope)” value (Nav1.5 [12]) was −2.9 ± 0.2. For the same molecule, the “GV − V1/2 (Steady state activation)” value (Nav1.5 [13]) was −22.6 ± 1.6 mV and the “GV − z (slope)” value (Nav1.5 [13]) was 2.5 ± 0.1.

For CCN(CC)CC(=O)Nc1c(C)cccc1C [Lidocaine, lidocaine], the “Mean block of INa” value (Nav1.4 [3]) is listed as 60.6±2.3% and ~60%, the “peak heat of titration” value [9] is listed as 968.0 ± 23.4 kcal/mol and the IC50 (Nav1.4 [14]) is listed as 1100 µM. For the same molecule, the “Mean block of INa” value (Nav1.4 WWWW) was 53.6±11.7%, the “Mean block of INa” value (Nav1.4 F1586A) was 24.6±9.3% and ~20% and the “difference between inhibition of WT vs. F1586A” value (Nav1.4 F1586A) was 3 fold.

With C[C@]12CC[C@@H]3c4ccc(O)cc4CC[C@H]3[C@@H]1CC[C@@H]2O [E2, 17β-Estradiol] the “Percentage of persistent INa” value (Nav1.5 [4]) was 0.85 ± 0.06% and 0.91 ± 0.06% and 1.92 ± 0.09% and 0.89 ± 0.06% and 1.73 ± 0.03% and 0.95 ± 0.09% and 0.90 ± 0.11% and the “GV − z (slope)” value (Nav1.5 [13]) was 3.1 ± 0.1 and 3.0 ± 0.1 and 2.4 ± 0.1 and 3.5 ± 0.1 and 2.8 ± 0.1 and 3.6 ± 0.1 and 3.4 ± 0.2.
